Assay results from PubChem BioAssay AID1963450 (Molecular Pharmacology Branch, DTP, NCI, 2024).

System: 556581-035-R-J1-PDC complex spheroid growth
Assay: Anticancer human tumor 556581-035-R-J1-PDC patient-derived ovarian carcinoma cell line growth inhibition [Asc]
Details: for IC50: curve of first compound; for viability, T/C: stronger effect = lower value
How it was run: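 Tumor cells were grown as complex spheroids with human endothelial cells (HUVEC) and human mesenchymal stem cells as stroma. Agents were tested alone and in combination, in half-log steps down from the clinical Cmax, or from 10 microM where Cmax was unknown.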

[1] = second compound 0.1 µM, first compound 0.0316 µM
[2] = second compound 0.1 µM, first compound 0.1 µM
[3] = second compound 0.1 µM, first compound 0.316 µM
[4] = second compound 0.1 µM, first compound 1 µM
[5] = second compound 0.1 µM, first compound 3.16 µM
[6] = second compound 0.1 µM, first compound 10 µM
[7] = second compound 0.316 µM, first compound 0.0316 µM
[8] = second compound 0.316 µM, first compound 0.1 µM
[9] = second compound 0.316 µM, first compound 0.316 µM
[10] = second compound 0.316 µM, first compound 1 µM
[11] = second compound 0.316 µM, first compound 3.16 µM
[12] = second compound 0.316 µM, first compound 10 µM
[13] = second compound 1 µM, first compound 0.0316 µM
[14] = second compound 1 µM, first compound 0.1 µM
[15] = second compound 1 µM, first compound 0.316 µM
[16] = second compound 1 µM, first compound 1 µM
[17] = second compound 1 µM, first compound 3.16 µM
[18] = second compound 1 µM, first compound 10 µM
[19] = second compound 3.16 µM, first compound 0.0316 µM
[20] = second compound 3.16 µM, first compound 0.1 µM
[21] = second compound 3.16 µM, first compound 0.316 µM
[22] = second compound 3.16 µM, first compound 1 µM
[23] = second compound 3.16 µM, first compound 3.16 µM
[24] = second compound 3.16 µM, first compound 10 µM
[25] = second compound 10 µM, first compound 0.0316 µM
[26] = second compound 10 µM, first compound 0.1 µM
[27] = second compound 10 µM, first compound 0.316 µM
[28] = second compound 10 µM, first compound 1 µM
[29] = second compound 10 µM, first compound 3.16 µM
[30] = second compound 10 µM, first compound 10 µM
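Note: spheroids exposed to agents for 7 days before viability read.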

## C=C(F)C(=O)N1CCN(c2nc(OCC3CCCN3C)nc3c2CCN(c2cccc4cccc(Cl)c24)C3)CC1CC#N (stereo not given) + Cc1c(S(C)(=O)=O)c(-c2cc(F)cc(N3CCN(c4ccc(NS(=O)(=O)c5ccc(NC(CCN6CCC(C(=O)OCCCP(=O)(O)O)CC6)CSc6ccccc6)c(S(=O)(=O)C(F)(F)F)c5)cc4)CC3)c2)c(-c2ccc(Cl)cc2)n1C(C)C
Second compound 0.1 µM
  IC50: 2110 nM
Second compound 0.316 µM
  IC50: 1550 nM
Second compound 1 µM
  IC50: 1270 nM
Second compound 3.16 µM
  IC50: 1010 nM
Second compound 10 µM
  IC50: 1010 nM
[1]
  viability, T/C: 80.6%
[2]
  viability, T/C: 87.7%
[3]
  viability, T/C: 79.1%
[4]
  viability, T/C: 76.9%
[5]
  viability, T/C: 35.4%
[6]
  viability, T/C: 30.3%
[7]
  viability, T/C: 69.3%
[8]
  viability, T/C: 86.7%
[9]
  viability, T/C: 87.8%
[10]
  viability, T/C: 68.6%
[11]
  viability, T/C: 18.2%
[12]
  viability, T/C: 0.26%
[13]
  viability, T/C: 73.7%
[14]
  viability, T/C: 71.8%
[15]
  viability, T/C: 64.9%
[16]
  viability, T/C: 56.8%
[17]
  viability, T/C: 23.5%
[18]
  viability, T/C: 25.7%
[19]
  viability, T/C: 63.1%
[20]
  viability, T/C: 61.5%
[21]
  viability, T/C: 67.7%
[22]
  viability, T/C: 50.3%
[23]
  viability, T/C: 22.1%
[24]
  viability, T/C: 27%
[25]
  viability, T/C: 59.6%
[26]
  viability, T/C: 54.5%
[27]
  viability, T/C: 57.8%
[28]
  viability, T/C: 50.4%
[29]
  viability, T/C: 8.45%
[30]
  viability, T/C: 0.49%

## C#Cc1c(F)ccc2cc(O)cc(-c3ncc4c(N5CC6CCC(C5)N6)nc(OCC56CCCN5CC(F)C6)nc4c3F)c12 (stereo not given) + Cc1c(S(C)(=O)=O)c(-c2cc(F)cc(N3CCN(c4ccc(NS(=O)(=O)c5ccc(NC(CCN6CCC(C(=O)OCCCP(=O)(O)O)CC6)CSc6ccccc6)c(S(=O)(=O)C(F)(F)F)c5)cc4)CC3)c2)c(-c2ccc(Cl)cc2)n1C(C)C
Second compound 0.1 µM
  IC50: > 10000 nM
Second compound 0.316 µM
  IC50: > 10000 nM
Second compound 1 µM
  IC50: 7570 nM
Second compound 3.16 µM
  IC50: 8820 nM
Second compound 10 µM
  IC50: 1210 nM
[1]
  viability, T/C: 82%
[2]
  viability, T/C: 83.8%
[3]
  viability, T/C: 63.6%
[4]
  viability, T/C: 64.5%
[5]
  viability, T/C: 79.7%
[6]
  viability, T/C: 71.9%
[7]
  viability, T/C: 55%
[8]
  viability, T/C: 79.5%
[9]
  viability, T/C: 81.9%
[10]
  viability, T/C: 70.1%
[11]
  viability, T/C: 63.6%
[12]
  viability, T/C: 63.5%
[13]
  viability, T/C: 73.3%
[14]
  viability, T/C: 65.3%
[15]
  viability, T/C: 63.8%
[16]
  viability, T/C: 65.1%
[17]
  viability, T/C: 59.2%
[18]
  viability, T/C: 46.9%
[19]
  viability, T/C: 51.7%
[20]
  viability, T/C: 68.3%
[21]
  viability, T/C: 67.3%
[22]
  viability, T/C: 60.7%
[23]
  viability, T/C: 57.8%
[24]
  viability, T/C: 49.1%
[25]
  viability, T/C: 64.8%
[26]
  viability, T/C: 58.2%
[27]
  viability, T/C: 59.9%
[28]
  viability, T/C: 47%
[29]
  viability, T/C: 47.3%
[30]
  viability, T/C: 39.6%

## NC(=O)C(=Cn1cnc(-c2cc(C(F)(F)F)cc(C(F)(F)F)c2)n1)c1cncnc1 + CCN1C(C(=O)NC23CCC(C(=O)O)(CC2)CC3)C(c2cccc(Cl)c2F)C2(C(=O)Nc3cc(Cl)ccc32)C12CCCCC2
Second compound 0.03 µM
  IC50: > 300 nM
Second compound 0.0949 µM
  IC50: > 300 nM
Second compound 0.3 µM
  IC50: > 300 nM
Second compound 0.949 µM
  IC50: > 300 nM
Second compound 3 µM
  IC50: > 300 nM
Second compound 0.03 µM, first compound 0.000949 µM
  viability, T/C: 81%
Second compound 0.03 µM, first compound 0.003 µM
  viability, T/C: 96.2%
Second compound 0.03 µM, first compound 0.00949 µM
  viability, T/C: 87.3%
Second compound 0.03 µM, first compound 0.03 µM
  viability, T/C: 83.1%
Second compound 0.03 µM, first compound 0.0949 µM
  viability, T/C: 86.6%
Second compound 0.03 µM, first compound 0.3 µM
  viability, T/C: 86.6%
Second compound 0.0949 µM, first compound 0.000949 µM
  viability, T/C: 97.6%
Second compound 0.0949 µM, first compound 0.003 µM
  viability, T/C: 99.7%
Second compound 0.0949 µM, first compound 0.00949 µM
  viability, T/C: 92.9%
Second compound 0.0949 µM, first compound 0.03 µM
  viability, T/C: 86.7%
Second compound 0.0949 µM, first compound 0.0949 µM
  viability, T/C: 90.8%
Second compound 0.0949 µM, first compound 0.3 µM
  viability, T/C: 101%
Second compound 0.3 µM, first compound 0.000949 µM
  viability, T/C: 103%
Second compound 0.3 µM, first compound 0.003 µM
  viability, T/C: 91.6%
Second compound 0.3 µM, first compound 0.00949 µM
  viability, T/C: 94.9%
Second compound 0.3 µM, first compound 0.03 µM
  viability, T/C: 87.3%
Second compound 0.3 µM, first compound 0.0949 µM
  viability, T/C: 86.7%
Second compound 0.3 µM, first compound 0.3 µM
  viability, T/C: 97.1%
Second compound 0.949 µM, first compound 0.000949 µM
  viability, T/C: 88.4%
Second compound 0.949 µM, first compound 0.003 µM
  viability, T/C: 108%
Second compound 0.949 µM, first compound 0.00949 µM
  viability, T/C: 92.5%
Second compound 0.949 µM, first compound 0.03 µM
  viability, T/C: 101%
Second compound 0.949 µM, first compound 0.0949 µM
  viability, T/C: 90%
Second compound 0.949 µM, first compound 0.3 µM
  viability, T/C: 91.6%
Second compound 3 µM, first compound 0.000949 µM
  viability, T/C: 83.5%
Second compound 3 µM, first compound 0.003 µM
  viability, T/C: 87.9%
Second compound 3 µM, first compound 0.00949 µM
  viability, T/C: 81.7%
Second compound 3 µM, first compound 0.03 µM
  viability, T/C: 87.7%
Second compound 3 µM, first compound 0.0949 µM
  viability, T/C: 78.3%
Second compound 3 µM, first compound 0.3 µM
  viability, T/C: 61.2%

## CCN1C(C(=O)NC23CCC(C(=O)O)(CC2)CC3)C(c2cccc(Cl)c2F)C2(C(=O)Nc3cc(Cl)ccc32)C12CCCCC2 (stereo not given) + Cc1c(S(C)(=O)=O)c(-c2cc(F)cc(N3CCN(c4ccc(NS(=O)(=O)c5ccc(NC(CCN6CCC(C(=O)OCCCP(=O)(O)O)CC6)CSc6ccccc6)c(S(=O)(=O)C(F)(F)F)c5)cc4)CC3)c2)c(-c2ccc(Cl)cc2)n1C(C)C
Second compound 0.1 µM
  IC50: > 3000 nM
Second compound 0.316 µM
  IC50: > 3000 nM
Second compound 1 µM
  IC50: > 3000 nM
Second compound 3.16 µM
  IC50: > 3000 nM
Second compound 10 µM
  IC50: 812 nM
Second compound 0.1 µM, first compound 0.00949 µM
  viability, T/C: 80.2%
Second compound 0.1 µM, first compound 0.03 µM
  viability, T/C: 84.5%
Second compound 0.1 µM, first compound 0.0949 µM
  viability, T/C: 89.2%
Second compound 0.1 µM, first compound 0.3 µM
  viability, T/C: 81.3%
Second compound 0.1 µM, first compound 0.949 µM
  viability, T/C: 82%
Second compound 0.1 µM, first compound 3 µM
  viability, T/C: 75.8%
Second compound 0.316 µM, first compound 0.00949 µM
  viability, T/C: 82.2%
Second compound 0.316 µM, first compound 0.03 µM
  viability, T/C: 77.6%
Second compound 0.316 µM, first compound 0.0949 µM
  viability, T/C: 85.3%
Second compound 0.316 µM, first compound 0.3 µM
  viability, T/C: 68.3%
Second compound 0.316 µM, first compound 0.949 µM
  viability, T/C: 64%
Second compound 0.316 µM, first compound 3 µM
  viability, T/C: 66.4%
Second compound 1 µM, first compound 0.00949 µM
  viability, T/C: 87%
Second compound 1 µM, first compound 0.03 µM
  viability, T/C: 74.2%
Second compound 1 µM, first compound 0.0949 µM
  viability, T/C: 80.1%
Second compound 1 µM, first compound 0.3 µM
  viability, T/C: 78.1%
Second compound 1 µM, first compound 0.949 µM
  viability, T/C: 60.2%
Second compound 1 µM, first compound 3 µM
  viability, T/C: 52.1%
Second compound 3.16 µM, first compound 0.00949 µM
  viability, T/C: 65.8%
Second compound 3.16 µM, first compound 0.03 µM
  viability, T/C: 68.3%
Second compound 3.16 µM, first compound 0.0949 µM
  viability, T/C: 74.8%
Second compound 3.16 µM, first compound 0.3 µM
  viability, T/C: 69.4%
Second compound 3.16 µM, first compound 0.949 µM
  viability, T/C: 77.1%
Second compound 3.16 µM, first compound 3 µM
  viability, T/C: 47.2%
Second compound 10 µM, first compound 0.00949 µM
  viability, T/C: 60.2%
Second compound 10 µM, first compound 0.03 µM
  viability, T/C: 67.6%
Second compound 10 µM, first compound 0.0949 µM
  viability, T/C: 55.6%
Second compound 10 µM, first compound 0.3 µM
  viability, T/C: 58.7%
Second compound 10 µM, first compound 0.949 µM
  viability, T/C: 49%
Second compound 10 µM, first compound 3 µM
  viability, T/C: 30.8%
